Results: ChEMBL document CHEMBL4130507, “Therapeutic investigations of novel indoxyl-based indolines: A drug target validation and Structure-Activity Relationship of angiotensin-converting enzyme inhibitors with cardiovascular regulation and thrombolytic potential” (Eur J Med Chem, 2017)
Active and inactive are the calls of the source. No cut-off for these calls is given here.

What was measured:
[1] = Antioxidant activity assessed as H2O2 free radical scavenging activity after 1 hr by UV spectrophotometric analysis; type: functional
[2] = target: T1, Angiotensin-converting enzyme (Homo sapiens, UniProt P12821); assay: Inhibition of ACE (unknown origin) using Hippuryl-L-Histidyl-L-Leucine as substrate after 60 mins by colorimetric method
T1 sequence (P12821 whole entry): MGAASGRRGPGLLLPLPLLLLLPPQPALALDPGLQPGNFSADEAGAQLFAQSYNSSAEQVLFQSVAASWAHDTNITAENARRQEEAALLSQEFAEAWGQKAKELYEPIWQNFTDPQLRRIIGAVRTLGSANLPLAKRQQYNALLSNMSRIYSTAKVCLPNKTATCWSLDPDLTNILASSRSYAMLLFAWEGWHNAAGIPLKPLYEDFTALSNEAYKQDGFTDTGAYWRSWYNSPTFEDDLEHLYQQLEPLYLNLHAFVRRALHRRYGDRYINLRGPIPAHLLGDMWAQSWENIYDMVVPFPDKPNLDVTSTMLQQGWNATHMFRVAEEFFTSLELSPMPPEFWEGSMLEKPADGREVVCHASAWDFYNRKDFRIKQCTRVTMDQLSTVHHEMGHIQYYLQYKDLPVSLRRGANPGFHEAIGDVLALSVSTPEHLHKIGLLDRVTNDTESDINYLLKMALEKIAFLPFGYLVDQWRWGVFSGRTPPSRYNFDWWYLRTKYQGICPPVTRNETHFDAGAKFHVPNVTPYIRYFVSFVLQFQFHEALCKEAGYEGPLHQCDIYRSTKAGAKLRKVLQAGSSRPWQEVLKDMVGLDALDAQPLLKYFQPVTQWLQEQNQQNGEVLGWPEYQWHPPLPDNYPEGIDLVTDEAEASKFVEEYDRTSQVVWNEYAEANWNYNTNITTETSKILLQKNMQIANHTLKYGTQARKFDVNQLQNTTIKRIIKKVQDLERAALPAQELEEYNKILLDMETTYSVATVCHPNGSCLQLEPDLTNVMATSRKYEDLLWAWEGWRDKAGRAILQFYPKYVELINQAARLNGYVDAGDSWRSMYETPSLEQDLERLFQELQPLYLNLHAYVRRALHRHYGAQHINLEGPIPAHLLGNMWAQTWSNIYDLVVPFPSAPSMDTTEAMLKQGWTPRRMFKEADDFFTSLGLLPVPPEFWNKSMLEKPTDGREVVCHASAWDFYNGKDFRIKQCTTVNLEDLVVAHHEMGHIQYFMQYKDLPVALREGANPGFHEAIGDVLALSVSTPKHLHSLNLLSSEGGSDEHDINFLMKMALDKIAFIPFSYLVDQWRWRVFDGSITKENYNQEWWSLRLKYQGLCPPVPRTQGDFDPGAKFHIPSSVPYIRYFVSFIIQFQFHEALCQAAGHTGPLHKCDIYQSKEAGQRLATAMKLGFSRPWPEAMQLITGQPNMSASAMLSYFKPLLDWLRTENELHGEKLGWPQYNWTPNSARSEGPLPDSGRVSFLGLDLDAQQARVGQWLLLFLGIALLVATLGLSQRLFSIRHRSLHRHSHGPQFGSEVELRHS

DNA = assay: Inhibition of H2O2-induced Escherichia coli DH5alpha genomic DNA damage at 25 to 250 uL after 24 hrs by ethidium-bromide staining-based agarose gel electrophoresis; type: nucleic-acid assay; settings: Escherichia coli DH5[alpha]
[3] = target: T1, Angiotensin-converting enzyme; assay: Inhibition of ACE (unknown origin) at IC50 using Hippuryl-L-Histidyl-L-Leucine as substrate after 60 mins by colorimetric method relative to control
[4] = Antioxidant activity assessed as H2O2 free radical scavenging activity at IC50 after 1 hr by UV spectrophotometric analysis relative to control; type: functional
MCF10 = assay: Cytotoxicity against human MCF10 cells at 10 to 150 ug/ml after 24 to 72 hrs by MTT assay; type: cell-based
MCF7 [5] = assay: Cytotoxicity against human MCF7 cells after 24 to 72 hrs by MTT assay; type: functional, cell-based
MCF7 [6] = assay: Cytotoxicity against human MCF7 cells at IC50 after 24 to 72 hrs by MTT assay relative to control; type: functional
Blood [7] = assay: Thrombolytic activity in human blood after 2 hrs relative to control; type: functional
Blood [8] = assay: Thrombolytic activity in human blood after 60 mins; type: functional, tissue-based
Erythrocyte = assay: Induction of membrane stabilization in human RBC assessed as reduction in hemolysis relative to control; type: functional; design: scale not given: the % may be the effect or the level left
Blood [9] = assay: Thrombolytic activity in human blood after 2 hrs; type: functional, tissue-based

## CN1C(=O)/C(=N\C(=S)NCc2cc3ccccc3cc2O)c2ccccc21
[1]
  Activity: Dose-dependent effect
[2]
  IC50: 22.3 nM
DNA
  inhibition: inactive
[3]
  inhibition: 66.5%
[4]
  Activity: 74.1%

## O=C1/C(=N\C(=S)NCc2cc3ccccc3cc2O)c2ccccc2N1C(=O)c1ccccc1
[1]
  Activity: Dose-dependent effect
MCF10
  Activity: Non-Toxic
[2]
  IC50: 8.84 nM
DNA
  inhibition: Active
[3]
  inhibition: 87.3%
[4]
  Activity: 89.5%
MCF7 [5]
  IC50: 102 nM
MCF7 [6]
  Activity: 78.12%
Blood [7]
  Activity: 83.5%

## Cc1ccc(C(=O)N2C(=O)/C(=N\C(=S)NCc3cc4ccccc4cc3O)c3ccccc32)cc1
[1]
  Activity: Dose-dependent effect
[2]
  IC50: 24.2 nM
[3]
  inhibition: 65%
[4]
  Activity: 83.1%

## O=C1/C(=N\C(=S)NCc2cc3ccccc3cc2O)c2ccccc2N1c1ccccc1
[1]
  Activity: Dose-dependent effect
[2]
  IC50: 19 nM
[3]
  inhibition: 69.2%
[4]
  Activity: 80.8%

## COc1cccc2c1C(=O)c1c(O)c3c(c(O)c1C2=O)C[C@@](O)(C(=O)CO)C[C@@H]3O[C@H]1C[C@H](N)[C@H](O)[C@H](C)O1 [DOXORUBICIN]
MCF7 [6]
  Activity: 78.42%

## O=C1/C(=N\C(=S)NCc2cc3ccccc3cc2O)c2ccccc2N1CCBr
[1]
  Activity: Dose-dependent effect
MCF10
  Activity: Non-Toxic
[2]
  IC50: 4.11 nM
DNA
  inhibition: Active
Blood [8]
  Activity: Active
[3]
  inhibition: 90.5%
[4]
  Activity: 92.5%
MCF7 [5]
  IC50: 92 nM
MCF7 [6]
  Activity: 82.94%
Blood [7]
  Activity: 83.5%

## NCCCC[C@H](N[C@@H](CCc1ccccc1)C(=O)O)C(=O)N1CCC[C@H]1C(=O)O
[3]
  inhibition: 89.1%

## CC(=O)N1C(=O)/C(=N\C(=S)NCc2cc3ccccc3cc2O)c2ccccc21
[1]
  Activity: Dose-dependent effect
[2]
  IC50: 10.7 nM
DNA
  inhibition: Active
[3]
  inhibition: 82.7%
[4]
  Activity: 81.2%

## O=C1O[C@H]([C@@H](O)CO)C(O)=C1O
[4]
  Activity: 90.1%

## O=C(O)CN1C(=O)/C(=N\C(=S)NCc2cc3ccccc3cc2O)c2ccccc21
[1]
  Activity: Dose-dependent effect
MCF10
  Activity: Non-Toxic
Erythrocyte
  Activity: 96%
[2]
  IC50: 2.85 nM
DNA
  inhibition: Active
Blood [8]
  Activity: Active
[3]
  inhibition: 96.1%
[4]
  Activity: 98.1%
MCF7 [5]
  IC50: 82 nM
MCF7 [6]
  Activity: 89.02%
Blood [7]
  Activity: 83.5%
Blood [9]
  IC50: 35 nM

## CC(=O)CN1C(=O)/C(=N\C(=S)NCc2cc3ccccc3cc2O)c2ccccc21
[1]
  Activity: Dose-dependent effect
[2]
  IC50: 112 nM
[3]
  inhibition: 24%
[4]
  Activity: 68.5%

## CCCN1C(=O)/C(=N\C(=S)NCc2cc3ccccc3cc2O)c2ccccc21
[1]
  Activity: Dose-dependent effect
[2]
  IC50: 11.8 nM
[3]
  inhibition: 80.7%
[4]
  Activity: 75.1%

## COc1ccc(N2C(=O)/C(=N/C(=S)NCc3cc4ccccc4cc3O)c3ccccc32)cc1
[1]
  Activity: Dose-dependent effect
[2]
  IC50: 9.82 nM
[3]
  inhibition: 86.4%
[4]
  Activity: 79.4%

## O=C1/C(=N\C(=S)NCc2cc3ccccc3cc2O)c2ccccc2N1c1ccccc1Cl
[1]
  Activity: Dose-dependent effect
[2]
  IC50: 15.1 nM
[3]
  inhibition: 76.5%
[4]
  Activity: 82.7%

## COc1ccc(CN2C(=O)/C(=N\C(=S)NCc3cc4ccccc4cc3O)c3ccccc32)cc1
[1]
  Activity: Dose-dependent effect
[2]
  IC50: 7.64 nM
DNA
  inhibition: Active
[3]
  inhibition: 88.5%
[4]
  Activity: 78%
Blood [7]
  Activity: 83.5%
